# According to patent publication US20050019267A1, “Macromolecular imaging agents for liver imaging” (priority 2001, published 2005):
# Key:
# [1] = in vivo; cited from earlier work
# [2] = system: LS174T intrahepatic micro-metastases; type: in vivo
# [3] = 0.03 mmolGd/kg DAB-Am64-(1B4M-Gd)64 or 0.1 mmolGd/kg dimeglumine-DTPA-Gd, dynamic MRI 0-25 min
SMILES,excreted via the liver [1],"MRI signal intensity for blood vessels (portal and hepatic veins) [2, 3]","MRI signal intensity in the tumors [2, 3]","MRI signal intensity in the liver ([2]; 0.03 mmolGd/kg DAB-Am64-(1B4M-Gd)64 or 0.1 mmolGd/kg dimeglumine-DTPA-Gd, dynamic MRI 0-25 min, comparator worded relative to DAB agent)","liver-to-tumor image intensity ratio ([2]; 0.1 mmolGd/kg dimeglumine-DTPA-Gd versus 0.03 mmolGd/kg DAB-Am64-(1B4M-Gd)64, all time points)","tumors with more than 2 mm diameter detected by MRI (of 18) ([2]; same mice, n=5, 1-day interval, 0.03 mmolGd/kg DAB agent, 0.1 mmolGd/kg dimeglumine-DTPA-Gd)"
"CCOc1ccc(CC(CN(CCN(CC(=O)[O-])CC(=O)[O-])CC(=O)[O-])N(CC(=O)[O-])CC(=O)[O-])cc1.[Gd+3].[Na+].[Na+] (stereo not shown) [Eovist, [Gd(EOB-DTPA)(H2O)]^2−]",roughly 50%,,,,,
"CNC[C@H](O)[C@@H](O)[C@H](O)[C@H](O)CO.CNC[C@H](O)[C@@H](O)[C@H](O)[C@H](O)CO.O=C([O-])CN(CCN(CC(=O)[O-])CC(=O)O)CCN(CC(=O)O)C(COCc1ccccc1)C(=O)[O-].[Gd+3] (stereo not shown) [MultiHance, [Gd(BOPTA)(H2O)]^2−]",2-4%,,,,,
CNC[C@H](O)[C@@H](O)[C@H](O)[C@H](O)CO.CNC[C@H](O)[C@@H](O)[C@H](O)[C@H](O)CO.O=C([O-])CN(CCN(CC(=O)[O-])CC(=O)O)CCN(CC(=O)[O-])CC(=O)O.[Gd+3] [dimeglumine-DTPA-Gd],,much lower,comparable,much lower,significantly less,18
